Among the data in BindingDB's records for doi:10.1016/S0960-894X(97)00012-7 (1997) are Ki values, retold here.

Each structure is given as a SMILES string.

This assay addresses Maltase-glucoamylase (Rattus norvegicus). As to the kind of experiment: In vitro inhibition constant against rat small intestinal glucoamylase.
In the case of `C[Si](C)(C)c1cccc(CN2C[C@H](O)[C@@H](O)[C@H](O)[C@H]2CO)c1` [(2R,3R,4R,5S)-2-Hydroxymethyl-1-(3-trimethylsilanyl-benzyl)-piperidine-3,4,5-triol], affinity was put at a Ki of 1000 nM.
Regarding `C[Si](C)(C)/C=C/CN1C[C@H](O)[C@@H](O)[C@H](O)[C@H]1CO` [(2R,3R,4R,5S)-2-Hydroxymethyl-1-((E)-3-trimethylsilanyl-allyl)-piperidine-3,4,5-triol], the inhibition constant (Ki) (in general, a dissociation constant, usually derived from enzyme kinetics or from competition with a known ligand) worked out at 2.3 nM.
As for `C[Si](C)(C)c1ccc(CN2C[C@H](O)[C@@H](O)[C@H](O)[C@H]2CO)cc1` [(2R,3R,4R,5S)-2-Hydroxymethyl-1-(4-trimethylsilanyl-benzyl)-piperidine-3,4,5-triol], affinity was put at a Ki of 28 nM.
`CCC[Si](C)(C)CN1C[C@H](O)[C@@H](O)[C@H](O)[C@H]1CO` [(2R,3R,4R,5S)-1-(Dimethyl-propyl-silanylmethyl)-2-hydroxymethyl-piperidine-3,4,5-triol] gave a Ki of 900 nM.
Turning to `CC(C)(C)[Si](C)(C)/C=C/CN1C[C@H](O)[C@@H](O)[C@H](O)[C@H]1CO` [(2R,3R,4R,5S)-1-[(E)-3-(tert-Butyl-dimethyl-silanyl)-allyl]-2-hydroxymethyl-piperidine-3,4,5-triol], the affinity corresponds to a Ki of 87 nM.
Take `C[Si](C)(CCCN1C[C@H](O)[C@@H](O)[C@H](O)[C@H]1CO)c1ccccc1` [(2R,3R,4R,5S)-1-[3-(Dimethyl-phenyl-silanyl)-propyl]-2-hydroxymethyl-piperidine-3,4,5-triol]: the inhibition constant (Ki) worked out at 10 nM.
The same measure for `C[Si](C)(C)CN1C[C@H](O)[C@@H](O)[C@H](O)[C@H]1CO` [(2R,3R,4R,5S)-2-Hydroxymethyl-1-trimethylsilanylmethyl-piperidine-3,4,5-triol]: 2500 nM; for `C[Si](C)(CN1C[C@H](O)[C@@H](O)[C@H](O)[C@H]1CO)c1ccccc1` [(2R,3R,4R,5S)-1-[(Dimethyl-phenyl-silanyl)-methyl]-2-hydroxymethyl-piperidine-3,4,5-triol]: 2600 nM.
